Measured values taken from ChEMBL document CHEMBL3885861, “Open TG-GATES”.

Species: Rattus norvegicus
Assay: Open TG-GATES - Regimen: Single
Assay type: toxicity, organism-based, Sprague-Dawley
Design: regimen Single, gender Male, age 6 weeks
Details: in vivo, po, route gavage; for Bas / Eos / Fbg / Ht / MCHC / Mono / RBC / Ret: tissue Blood; for KIDNEY_L / KIDNEY_R / KIDNEY_TOTAL: tissue Kidney; for LIVER: tissue Liver; for ALT / AST / BUN / CRE / DBIL / GLC / IP / K / PL / RALB / TBIL / TC / TG / TP / gamma-GTP / ALP: tissue Plasma
[1] = 0 mg/kg, 3 h, dose level Control
[2] = 0 mg/kg, 6 h, dose level Control
[3] = 0 mg/kg, 9 h, dose level Control
[4] = 0 mg/kg, 24 h, dose level Control

Structure (SMILES): CC(C)OC(=O)C(C)(C)Oc1ccc(C(=O)c2ccc(Cl)cc2)cc1 [FENOFIBRATE]
- Bas [1]: 0.4%
- Eos [1]: 0.8%
- Fbg [1]: 289.4 mg/dL
- Ht [1]: 39.8%
- MCHC [1]: 32.5%
- Mono [1]: 4%
- RBC [1]: 616.8 x10_4/ul
- Ret [1]: 9%
- KIDNEY_L [1]: 0.8 g
- KIDNEY_R [1]: 0.8 g
- KIDNEY_TOTAL [1]: 1.5 g
- LIVER [1]: 7.9 g
- ALT [1]: 48.4 IU/L
- AST [1]: 83 IU/L
- BUN [1]: 9 mg/dL
- CRE [1]: 0.2 mg/dL
- DBIL [1]: 0.006 mg/dL
- GLC [1]: 182.6 mg/dL
- IP [1]: 9.5 mg/dL
- K [1]: 4.3 meq/L
- PL [1]: 140.8 mg/dL
- RALB [1]: 2.4 g/dL
- TBIL [1]: 0.048 mg/dL
- TC [1]: 77 mg/dL
- TG [1]: 41.2 mg/dL
- TP [1]: 5.2 g/dL
- gamma-GTP [1]: 1.4 IU/L
- Bas [2]: 0.4%
- Eos [2]: 0.8%
- Fbg [2]: 268.2 mg/dL
- Ht [2]: 40.1%
- MCHC [2]: 32.4%
- Mono [2]: 3%
- RBC [2]: 599.2 x10_4/ul
- Ret [2]: 9.6%
- KIDNEY_L [2]: 0.8 g
- KIDNEY_R [2]: 0.8 g
- KIDNEY_TOTAL [2]: 1.5 g
- LIVER [2]: 7.2 g
- ALP [2]: 1534.8 IU/L
- ALT [2]: 41.8 IU/L
- AST [2]: 81.8 IU/L
- BUN [2]: 9.6 mg/dL
- CRE [2]: 0.2 mg/dL
- DBIL [2]: 0.008 mg/dL
- GLC [2]: 173.8 mg/dL
- IP [2]: 9.7 mg/dL
- K [2]: 4.1 meq/L
- PL [2]: 142.6 mg/dL
- RALB [2]: 2.5 g/dL
- TBIL [2]: 0.056 mg/dL
- TC [2]: 82.4 mg/dL
- TG [2]: 44.6 mg/dL
- TP [2]: 5.4 g/dL
- gamma-GTP [2]: 1 IU/L
- Bas [3]: 0%
- Eos [3]: 1%
- Fbg [3]: 292.6 mg/dL
- Ht [3]: 39.3%
- MCHC [3]: 32.3%
- Mono [3]: 2.4%
- RBC [3]: 584.2 x10_4/ul
- Ret [3]: 9.6%
- KIDNEY_L [3]: 0.8 g
- KIDNEY_R [3]: 0.8 g
- KIDNEY_TOTAL [3]: 1.5 g
- LIVER [3]: 6.9 g
- ALP [3]: 1454.2 IU/L
- ALT [3]: 38.6 IU/L
- AST [3]: 75.8 IU/L
- BUN [3]: 8.4 mg/dL
- CRE [3]: 0.2 mg/dL
- DBIL [3]: 0.008 mg/dL
- GLC [3]: 178.8 mg/dL
- IP [3]: 9.5 mg/dL
- K [3]: 4 meq/L
- PL [3]: 145.8 mg/dL
- RALB [3]: 2.4 g/dL
- TBIL [3]: 0.058 mg/dL
- TC [3]: 83.2 mg/dL
- TG [3]: 38.6 mg/dL
- TP [3]: 5.2 g/dL
- gamma-GTP [3]: 1 IU/L
- Bas [4]: 0.2%
- Eos [4]: 1%
- Fbg [4]: 281.4 mg/dL
- Ht [4]: 39.1%
- MCHC [4]: 32.7%
- Mono [4]: 3%
- RBC [4]: 590.8 x10_4/ul
- Ret [4]: 9.3%
- KIDNEY_L [4]: 0.9 g
- KIDNEY_R [4]: 0.8 g
- KIDNEY_TOTAL [4]: 1.7 g
- LIVER [4]: 9.1 g
- ALT [4]: 50.4 IU/L
- AST [4]: 77.6 IU/L
- CRE [4]: 0.2 mg/dL
- DBIL [4]: 0.012 mg/dL
- GLC [4]: 186.2 mg/dL
- IP [4]: 8.5 mg/dL
- K [4]: 4.4 meq/L
- PL [4]: 153.6 mg/dL
- RALB [4]: 2.6 g/dL
- TBIL [4]: 0.04 mg/dL
- TC [4]: 82.8 mg/dL
- TG [4]: 65 mg/dL
- TP [4]: 5.6 g/dL
- gamma-GTP [4]: 0.8 IU/L
- Bas (10 mg/kg, 3 h, dose level Low): 0.2%
- Eos (10 mg/kg, 3 h, dose level Low): 0.6%
